In ChEMBL document CHEMBL1149983, “Probing the S-1 subsite selectivity of an industrial alkaline protease in anhydrous t-butanol” (Bioorg Med Chem Lett, 1993) one finds Reaction time data, which are given here for 9 compounds.

Each structure is given as a SMILES string. Peptide text beside a SMILES is read from it. * marks the point of attachment. Cbz = O=C(OCc1ccccc1)*

This test in a line: Reaction time taken for industrial alkaline protease catalyzed synthesis using CBz-Phe-OCP as acyl donor and Gly-NH2 as nucleophile.
The compound `NC(=O)[C@H](Cc1ccccc1)NC(=O)[C@H](Cc1ccccc1)NC(=O)OCc1ccccc1` gave a Reaction time of 1 h. Consider `NC(=O)[C@H](Cc1ccccc1)NC(=O)CNC(=O)[C@H](Cc1ccccc1)NC(=O)OCc1ccccc1` (Cbz-Phe-Gly-Phe-NH2), for which the Reaction time was found to be 1 h.

Compound `NC(=O)CNC(=O)CNC(=O)[C@H](Cc1ccccc1)NC(=O)OCc1ccccc1` (Cbz-Phe-Gly-Gly-NH2) registered a Reaction time of 1.5 h. The value for `CCCOC(=O)[C@@H](C)NC(=O)[C@H](CC(=O)OCc1ccccc1)NC(=O)OCc1ccccc1` was 2 h; that for `CC(C)C[C@@H](NC(=O)[C@H](Cc1ccccc1)NC(=O)OCc1ccccc1)C(N)=O` was 1.5 h; that for `CC(C)C[C@H](NC(=O)[C@H](Cc1ccccc1)NC(=O)OCc1ccccc1)C(N)=O` was 1 h. `NC(=O)CNC(=O)[C@H](Cc1ccccc1)NC(=O)OCc1ccccc1` (Cbz-Phe-Gly-NH2) displayed a Reaction time of 1 h. As for `CC(C)C[C@H](NC(=O)CNC(=O)[C@H](Cc1ccccc1)NC(=O)OCc1ccccc1)C(N)=O` (Cbz-Phe-Gly-Leu-NH2), the Reaction time stood at 1 h. With `NC(=O)[C@@H](Cc1ccccc1)NC(=O)[C@H](Cc1ccccc1)NC(=O)OCc1ccccc1`, the Reaction time worked out at 2 h.
